In EP0395672B1, “ANTIVIRAL APPLICATION OF ALPHA OLIGONUCLEOTIDES” (CENTRE NATIONAL DE LA RECHERCHE SCIENTIFIQUE, priority 1987, dated 1989):

What was measured:
[1] = tested on: CEM; assay: inhibition of tumour cell proliferation; type: cell-based, humaine; details: Homo sapiens, CCRF-CEM, mean of at least two experiments, read-out: ID50 (dose d'inhibition du développement cellulaire de 50 %)
[2] = tested on: MOLT/4F; assay: inhibition of tumour cell proliferation; type: cell-based, humaine; details: Homo sapiens, mean of at least two experiments, read-out: ID50 (dose d'inhibition du développement cellulaire de 50 %)
[3] = tested on: L1210/0; assay: inhibition of tumour cell proliferation; type: cell-based, murine; details: Mus musculus, mean of at least two experiments, read-out: ID50 (dose d'inhibition du développement cellulaire de 50 %)
[4] = tested on: L1210/BdUrd; assay: inhibition of tumour cell proliferation; type: cell-based, murine; details: Mus musculus; L1210/BdUrd (résistant à BdUrd); mean of at least two experiments; read-out: ID50 (dose d'inhibition du développement cellulaire de 50 %)
[5] = tested on: MT4; assay: inhibition of tumour cell proliferation; type: cell-based, humaine; details: Homo sapiens, mean of at least two experiments, read-out: ID50 (dose d'inhibition du développement cellulaire de 50 %)
[6] = target: T1, réverse transcriptase de HIV1 (Human immunodeficiency virus type 1 group M subtype B, UniProt P03366); assay: inhibition of exogenous reverse transcription, poly(A) template with oligo(dT)12-18 primer (Example 2); type: biochemical
T1 construct: La réverse transcriptase de HIV1 ci-après abrégé RT a été partiellement purifiée; endogenous in cells; host or cells: HUT-78/HTLV-IIIb producer cell line; virus particles pelleted at 100,000 g and solubilised with Triton X-100
Text: Dans les exemples qui vont suivre les α oligodésoxynucléotides α-dT, α-dT₂, α-dT₄, α-dT₆, α-dT₈, α-dT₁₀, α-dT₁₂, α-dT₁₄, α-dT₁₆ ont été dissous dans de l'eau stérilisée pour les essais de réverse transcriptase. Les concentrations ont été déterminées par spectrophotométrie (coefficient d'absorption molaire : 8880, 17760, 35520, 61800, 70000, 83300, 88800, 109800 et 138400, respectivement). Les α oligodésoxynucléotides α-dC₂₀ et α-dC₃₀ ont été dissous dans de l'eau distillée et les concentrations ont été déterminées également par spectrophotométrie (coefficient d'absorption molaire 178000 et 267000, respectivement). Les solutions étaient conservées à -20° C jusqu'à leur utilisation.
Les réactions de transcription inverse ont été effectuées avec des virus HIV dont partiellement purifiées. Les fluides de culture provenant d'une lignée cellulaire produisant un HUT-78/HTLV-IIIb ont été purifiés par centrifugation à basse vitesse. Des particules virales ont été sédimentées par centrifugation à 100.000 g pendant 30 minutes. Le Pellet viral a été incubé sur glace pendant 30 minutes avec un tampon de solubilisation contenant du triton X-100 0,1 % du dithiothréitol 1mM et du glycérol 50 % et conservé dans des aliquots à -70°C jusqu'à utilisation. Les effets inhibiteurs des α oligodésoxynucléotides contenant des bases thymine sur la réaction de transcription inverse ont été effectués avec une matrice polyrA exogène et un α oligodT₁₂₋₁₈ . Le mélange de réaction (50 µl) contenait du Tris-HCl 50 mM (pH 7,8), du dithiothréitol 5mM, du glutathione 300 µM, du EGTA 500 µM et du KCl 150 mM, du MgCl₂ 5 mM, et 1,25 µg de sérum albumine de bovin, et 1 µM de (méthyl-³H) dTTP (radioactivité spécifique 30 Ci/mmol.) (5 µCi), le mélange comportait également 4,4 µg/ml de polyrA, 7,5 µM d'oligodT et du triton X-100 0,03 %, et 10 µl de solution de composé,(contenant des concentrations variables des composés) et 10 µl de préparation de réverse transcriptase. Les effets inhibiteurs sur la transcription de HIV à l'aide de α-dC₂₀ et α-dC₃₀ ont été déterminés en utilisant une matrice exogène polyI (50 µg/ml) tandis que le mélange oligodC₁₂₋₁₈ servait d'amorce (0,44 U/ml). Le mélange de réaction avec le système polyI.oligodC contenait des réactifs décrits pour le système polyrA. oligodT mais les concentrations de MgCl et KCI ont été ajustées à 2,5 mM et […], respectivement, tandis que le dTTP trifié a été substitué par le (méthyl-³H)dCTP (radioactivité spécifique 19,5 Ci/mmol) (5 µCi). Les mélanges de réactions ont été incubés à 37°C pendant 0 à 60 minutes à quel moment 100 µl d'ADN de thymus de veau (150 µg/ml), 2 ml de Na₄P₂O₇ (0,1 M dans HCL 1 N) et 2 ml de TCA (10 % v/v) ont été ajoutés. Les solutions ont été gardées sur glace pendant au moins 30 minutes, après lesquelles la matière acide insoluble a été lavée et analysée quant à sa radioactivité.
La réverse transcriptase de HIV1 ci-après abrégé RT a été partiellement purifiée et les oligomères α ont été étudiés en fonction de leur faculté à servir d'amorce sur une matrice poly(A) dans une réaction de transcription inverse exogène.
Ces pourcentages ont été calculés de la même manière que précédemment par mesure de radioactivité, laquelle indique la quantité d'incorporation de méthyl ³H dTTP (valeurs en Cpm).

Row | IC50 [1] [µM] | IC50 [2] [µM] | IC50 [3] [µM] | IC50 [4] [µM] | SMILES | IC50 [5] [µM] | pourcentages d'inhibitions de la réaction exogène de transcription inverse ([6]; 0.16 uM oligomer, 7,5 μM oligo(dT)12-18 primer) [%] | pourcentages d'inhibitions de la réaction exogène de transcription inverse ([6]; 0.8 uM oligomer, 7,5 μM oligo(dT)12-18 primer) [%] | pourcentages d'inhibitions de la réaction exogène de transcription inverse ([6]; 4 uM oligomer, 7,5 μM oligo(dT)12-18 primer) [%] | pourcentages d'inhibitions de la réaction exogène de transcription inverse ([6]; 20 uM oligomer, 7,5 μM oligo(dT)12-18 primer) [%] | pourcentages d'inhibitions de la réaction exogène de transcription inverse ([6]; 100 uM oligomer, 7,5 μM oligo(dT)12-18 primer) [%] | EC50 ([6]; 7,5 μM oligo(dT)12-18 primer, poly(A) template, read-out: ED50 (dose requise pour inhiber la réaction de transcription inverse de 50 %)) [µM] | inhibition de la réaction de transcription inverse ([6]; result in words, in presence of primer βdT₁₂₋₁₈)
1 | > 500 | > 500 | > 500 | > 500 | Nc1ncnc2c1ncn2[C@@H]1C[C@H](O)[C@@H](CO)O1 [α-2'-dAdo] | > 500 |  |  |  |  |  |  | 
2 | > 500 | > 500 | > 500 | > 500 | Nc1ccn([C@@H]2C[C@H](O)[C@@H](CO)O2)c(=O)n1 [α-2'-dC] | > 500 |  |  |  |  |  |  | 
3 | > 500 | > 500 | > 500 | > 500 | Nc1nc2c(ncn2[C@@H]2C[C@H](O)[C@@H](CO)O2)c(=O)[nH]1 [α-2'-dGuo] | > 500 |  |  |  |  |  |  | 
4 |  |  |  |  | Cc1cn([C@@H]2C[C@H](O)[C@@H](CO)O2)c(=O)[nH]c1=O [αdT] |  | 22 | 8 | 19 | 46 | 23 | > 100 | aucune inhibition significative
5 | 189 ± 19 | > 500 | > 500 | > 500 | Nc1ncnc2c1ncn2[C@H]1C[C@H](O)[C@@H](CO)O1 [β dAdo, reference compound] | > 500 |  |  |  |  |  |  | 
6 | 22.1 ± 0.6 | 79.5 ± 9.2 | 58.2 ± 10.9 | 55.5 ± 6.8 | Nc1nc2c(ncn2[C@H]2C[C@H](O)[C@@H](CO)O2)c(=O)[nH]1 [β dGuo, reference compound] | 55.3 ± 5.3 |  |  |  |  |  |  | 
7 | 24.7 ± 3.42 | > 500 | 29 ± 1.9 | > 500 | Cc1cn([C@H]2C[C@H](O)[C@@H](CO)O2)c(=O)[nH]c1=O [β dThd, reference compound] | 191 ± 7 |  |  |  |  |  |  | 

Row | SMILES | IC50 [1] [µM] | IC50 [2] [µM] | IC50 [3] [µM] | IC50 [4] [µM] | IC50 [5] [µM] | pourcentages d'inhibitions de la réaction exogène de transcription inverse ([6]; 0.16 uM oligomer, 7,5 μM oligo(dT)12-18 primer) [%] | pourcentages d'inhibitions de la réaction exogène de transcription inverse ([6]; 0.8 uM oligomer, 7,5 μM oligo(dT)12-18 primer) [%] | pourcentages d'inhibitions de la réaction exogène de transcription inverse ([6]; 4 uM oligomer, 7,5 μM oligo(dT)12-18 primer) [%] | pourcentages d'inhibitions de la réaction exogène de transcription inverse ([6]; 20 uM oligomer, 7,5 μM oligo(dT)12-18 primer) [%] | pourcentages d'inhibitions de la réaction exogène de transcription inverse ([6]; 100 uM oligomer, 7,5 μM oligo(dT)12-18 primer) [%] | EC50 ([6]; 7,5 μM oligo(dT)12-18 primer, poly(A) template, read-out: ED50 (dose requise pour inhiber la réaction de transcription inverse de 50 %)) [µM] | inhibition de la réaction de transcription inverse ([6]; result in words, in presence of primer βdT₁₂₋₁₈)
8 | Cc1cn([C@@H]2C[C@H](O)[C@@H](CO)O2)c(=O)[nH]c1=O [α-2'-dThd] | > 500 | > 500 | > 500 | > 500 | > 500 |  |  |  |  |  |  | 
